Results: paper PMC10541198, “Specific quinone reductase 2 inhibitors reduce metabolic burden and reverse Alzheimer’s disease phenotype in mice” (The Journal of Clinical Investigation, 2023)
Several values for one entry are separate records, joined by “and”; a condition that tells them apart may be missing. Equal entries are not always repeated.

Columns and labels:
[1] = tested on: 5xFAD mice; assay: Open field in 5xFAD mice; assay type: in vivo, mouse; conditions: for hind-limb rearing frequency / maximum movement bout duration / meandering / proportion of time moving / total distance traveled / total movement duration / average velocity: 5xFAD 1 month; for Sup. Fig. 5-2C, open field parameter / Sup. Fig. 5-2D, open field parameter / Sup. Fig. 5-2E, open field parameter / Sup. Fig. 5-2F, open field parameter / Sup. Fig. 5-2G, open field parameter / Sup. Fig. 5-2H, open field parameter / Sup. Fig. 5-2I, open field parameter: individual animals
Protocol: Mice were individually placed within a cage and taken to a dimly lit room containing an open field arena 50 x 50 cm in size. They were gi ve n 10 min prior to be i ng placed within the arena, where f or a period of 5 min they were allowed to explore. Two weeks later, this was repeated. The mice were filmed with an Ikegami ICD-49E camera with EthoVision 14 (Noldus Information Technology). Th e fl oor was ei ther whit e or black,dependingon mous e coat c ol or, to allow automatic analysisof movement par am et ers, apar t from rearing which was manually counted. […]

[2] = Body weight during chronic ingestion; assay type: in vivo, mouse; conditions: for average weight: over 25 days of consumption; for Sup. Fig. 5-2A, body weight: in g (unit assumed)
Protocol: Supplementary Figure 6. Chronic Drinking of 50 mg/kg YB -537 for of 1 Month Causes no Changes
in General Mouse Physiology or Behavior but Improves Nesting Behavior Over Time. […]

For `Cc1ccc(-c2cn3cccc(C)c3n2)cc1S(=O)(=O)N1CCNCC1` [YB-537], the hind-limb rearing frequency ([1]; both sexes) was 35.72 ± 3.292, the “maximum movement bout duration” value ([1]; both sexes) was 8.061 ± 1.322 s and the meandering ([1]; both sexes) was 733.4 ± 42.8 deg/cm. For the same compound, the “proportion of time moving” value ([1]; both sexes) was 81.44 ± 1.134%, the total distance traveled ([1]; both sexes) was 3244 ± 237.9 cm and the total movement duration ([1]; both sexes) was 244.3 ± 3.402 s. For the same compound, the average velocity ([1]; both sexes, n=16) was 10.9 ± 0.800 cm/s, the hind-limb rearing frequency ([1]; females) was 35.29 ± 4.894 and the “maximum movement bout duration” value ([1]; females) was 9.677 ± 3.012 s. For the same compound, the meandering ([1]; females) was 696.3 ± 65.26 deg/cm, the “proportion of time moving” value ([1]; females) was 81.84 ± 1.856% and the total distance traveled ([1]; females) was 3581 ± 484.5 cm. For the same compound, the total movement duration ([1]; females) was 245.5 ± 5.568 s, the average velocity ([1]; females, n=7) was 12.03 ± 1.625 cm/s and the hind-limb rearing frequency ([1]; males) was 36.06 ± 4.703. The “maximum movement bout duration” value ([1]; males) was 6.804 ± 0.2919 s, the meandering ([1]; males) was 762.2 ± 58.17 deg/cm and the “proportion of time moving” value ([1]; males) was 81.13 ± 1.5%. It also gave a total distance traveled ([1]; males) of 2983 ± 179.3 cm, a total movement duration ([1]; males) of 243.4 ± 4.5 s and an average velocity ([1]; males, n=9) of 10.01 ± 0.611 cm/s. The “Sup. Fig. 5-2C, open field parameter” value ([1]; Females) was 10.98 and 10.27 and 10.24 and 21.02 and 13.07 and 7.45 and 11.20, the “Sup. Fig. 5-2D, open field parameter” value ([1]; Females) was 3256.8 and 3049.8 and 3043.6 and 6259.0 and 3891.4 and 2217.1 and 3346.6 and the “Sup. Fig. 5-2E, open field parameter” value ([1]; Females) was 773.0 and 764.4 and 714.5 and 402.2 and 601.2 and 962.5 and 656.3. The “Sup. Fig. 5-2F, open field parameter” value ([1]; Females) was 6.70 and 6.10 and 6.62 and 27.48 and 6.06 and 5.20 and 9.58, the “Sup. Fig. 5-2G, open field parameter” value ([1]; Females) was 244.56 and 241.26 and 242.64 and 269.82 and 249.06 and 220.20 and 251.04 and the “Sup. Fig. 5-2H, open field parameter” value ([1]; Females) was 81.52 and 80.42 and 80.88 and 89.94 and 83.02 and 73.40 and 83.68. The “Sup. Fig. 5-2I, open field parameter” value ([1]; Females) was 50 and 30.5 and 32 and 31.5 and 55 and 17 and 31, the “Sup. Fig. 5-2C, open field parameter” value ([1]; Males + Females) was 10.98 and 10.27 and 10.24 and 21.02 and 7.23 and 10.34 and 8.54 and 12.00 and 10.63 and 9.25 and 12.61 and 11.34 and 8.16 and 13.07 and 7.45 and 11.20 and the “Sup. Fig. 5-2D, open field parameter” value ([1]; Males + Females) was 3256.8 and 3049.8 and 3043.6 and 6259.0 and 2163.2 and 3078.1 and 2557.7 and 3556.2 and 3161.5 and 2756.6 and 3753.0 and 3376.0 and 2440.2 and 3891.4 and 2217.1 and 3346.6. For the same compound, the “Sup. Fig. 5-2E, open field parameter” value ([1]; Males + Females) was 773.0 and 764.4 and 714.5 and 402.2 and 993.0 and 822.7 and 744.6 and 500.6 and 644.6 and 955.7 and 543.5 and 756.2 and 899.4 and 601.2 and 962.5 and 656.3, the “Sup. Fig. 5-2F, open field parameter” value ([1]; Males + Females) was 6.70 and 6.10 and 6.62 and 27.48 and 6.46 and 7.38 and 6.24 and 6.00 and 7.90 and 5.98 and 6.32 and 8.40 and 6.56 and 6.06 and 5.20 and 9.58 and the “Sup. Fig. 5-2G, open field parameter” value ([1]; Males + Females) was 244.56 and 241.26 and 242.64 and 269.82 and 228.20 and 238.00 and 244.72 and 264.44 and 254.26 and 226.58 and 258.62 and 243.36 and 232.42 and 249.06 and 220.20 and 251.04. The “Sup. Fig. 5-2H, open field parameter” value ([1]; Males + Females) was 81.52 and 80.42 and 80.88 and 89.94 and 76.07 and 79.33 and 81.57 and 88.15 and 84.75 and 75.53 and 86.21 and 81.12 and 77.47 and 83.02 and 73.40 and 83.68, the “Sup. Fig. 5-2I, open field parameter” value ([1]; Males + Females) was 50.0 and 30.5 and 32.0 and 31.5 and 12.5 and 27.5 and 35.0 and 60.5 and 43.0 and 34.0 and 45.0 and 44.0 and 23.0 and 55.0 and 17.0 and 31.0 and the “Sup. Fig. 5-2C, open field parameter” value ([1]; Males) was 12.00 and 10.63 and 9.25 and 12.61 and 11.34 and 8.16 and 7.23 and 10.34 and 8.54. For the same compound, the “Sup. Fig. 5-2D, open field parameter” value ([1]; Males) was 3556.2 and 3161.5 and 2756.6 and 3753.0 and 3376.0 and 2440.2 and 2163.2 and 3078.1 and 2557.7, the “Sup. Fig. 5-2E, open field parameter” value ([1]; Males) was 500.6 and 644.6 and 955.7 and 543.5 and 756.2 and 899.4 and 993.0 and 822.7 and 744.6 and the “Sup. Fig. 5-2F, open field parameter” value ([1]; Males) was 6.00 and 7.90 and 5.98 and 6.32 and 8.40 and 6.56 and 6.46 and 7.38 and 6.24. For the same compound, the “Sup. Fig. 5-2G, open field parameter” value ([1]; Males) was 264.44 and 254.26 and 226.58 and 258.62 and 243.36 and 232.42 and 228.20 and 238.00 and 244.72, the “Sup. Fig. 5-2H, open field parameter” value ([1]; Males) was 88.15 and 84.75 and 75.53 and 86.21 and 81.12 and 77.47 and 76.07 and 79.33 and 81.57 and the “Sup. Fig. 5-2I, open field parameter” value ([1]; Males) was 60.5 and 43 and 34 and 45 and 44 and 23 and 12.5 and 27.5 and 35. For the same compound, the average weight ([2]; 5xFAD females) was 22.76 ± 0.192 g, the average weight ([2]; 5xFAD males) was 32.56 ± 0.279 g and the “Sup. Fig. 5-2A, body weight” value ([2]; Female, Day 1) was 23 and 22 and 24 and 25 and 21 and 20. The “Sup. Fig. 5-2A, body weight” value ([2]; Female, Day 3) was 25 and 20 and 24 and 23, the “Sup. Fig. 5-2A, body weight” value ([2]; Female, Day 5) was 25 and 21 and 27 and 24 and 20 and the “Sup. Fig. 5-2A, body weight” value ([2]; Female, Day 9) was 24 and 20 and 25 and 27 and 22. For the same compound, the “Sup. Fig. 5-2A, body weight” value ([2]; Female, Day 11) was 23 and 21 and 25 and 26 and 22, the “Sup. Fig. 5-2A, body weight” value ([2]; Female, Day 15) was 25 and 22 and 26 and 23 and 24 and the “Sup. Fig. 5-2A, body weight” value ([2]; Female, Day 16) was 23 and 20 and 24. For the same compound, the “Sup. Fig. 5-2A, body weight” value ([2]; Female, Day 18) was 23 and 21 and 24 and 22 and 20, the “Sup. Fig. 5-2A, body weight” value ([2]; Female, Day 25) was 25 and 22 and 23 and 21 and the “Sup. Fig. 5-2A, body weight” value ([2]; Male, Day 1) was 34 and 42 and 33 and 36 and 31 and 28. For the same compound, the “Sup. Fig. 5-2A, body weight” value ([2]; Male, Day 3) was 33 and 41 and 32 and 35 and 30 and 26, the “Sup. Fig. 5-2A, body weight” value ([2]; Male, Day 5) was 33 and 40 and 32 and 35 and 30 and 26 and 34 and 31 and the “Sup. Fig. 5-2A, body weight” value ([2]; Male, Day 9) was 31 and 39 and 32 and 33 and 30 and 27 and 35. The “Sup. Fig. 5-2A, body weight” value ([2]; Male, Day 11) was 31 and 32 and 34 and 30 and 28 and 35, the “Sup. Fig. 5-2A, body weight” value ([2]; Male, Day 15) was 32 and 39 and 34 and 31 and 28 and 36 and the “Sup. Fig. 5-2A, body weight” value ([2]; Male, Day 18) was 32 and 37 and 29 and 30 and 33 and 27 and 35. For the same compound, the “Sup. Fig. 5-2A, body weight” value ([2]; Male, Day 25) was 32 and 39 and 31 and 34 and 27.
